This passage reports IC50 and EC50 results from patent US7041698B2, “Hepatitis C virus inhibitors” (Bristol-Myers Squibb Company, priority 2002, dated 2006).

Read-outs that look alike come from different tables or passages of the source.

The target of experiment [1] is T1, HCV NS3/4A protease complex (UniProt P27958, C1454S/C1711G, species not given).
T1 construct: fused on or other part: Three-lysine solubilising tail at the C-terminus of NS4A
As to the kind of experiment: Recombinant HCV NS3/4A protease complex FRET peptide assay (strain not stated). The experiment is classed as biochemical. From the text:
Recombinant HCV NS3/4A Protease Complex FRET Peptide Assay
The purpose of this in vitro assay was to measure the inhibition of HCV NS3 protease complexes, derived from the BMS, H77C or J416S strains, as described below, by compounds of the present invention. This assay provides an indication of how effective compounds of the present invention would be in inhibiting HCV proteolytic activity.
Serum from an HCV-infected patient was obtained from Dr. T. Wright, San Francisco Hospital. An engineered full-length cDNA (compliment deoxyribonucleic acid) template of the HCV genome (BMS strain) was constructed from DNA fragments obtained by reverse transcription-PCR (RT-PCR) of serum RNA (ribonucleic acid) and using primers selected on the basis of homology between other genotype 1a strains. From the determination of the entire genome sequence, a genotype 1a was assigned to the HCV isolate according to the classification of Simmonds et al. (See P Simmonds, K A Rose, S Graham, S W Chan, F McOmish, B C Dow, E A Follett, P L Yap and H Marsden, J. Clin. Microbiol., 31(6), 1493–1503 (1993)). […] The infectious clones, H77C (1a genotype) and J4L6S (1b genotype) were obtained from R. Purcell (NIH) and the sequences are published in Genbank (AAB67036, see Yanagi, M., Purcell, R. H., Emerson, S. U. and Bukh, J. Proc. Natl. Acad. Sci. U.S.A. 94(16),8738–8743 (1997); AF054247, see Yanagi, M., St Claire, M., Shapiro, M., Emerson, S. U., Purcell, R. H. and Bukh, J, Virology 244 (1), 161–172. (1998)).
The BMS, H77C and J4L6S strains were used for production of recombinant NS3/4A protease complexes. DNA encoding the recombinant HCV NS3/4A protease complex (amino acids 1027 to 1711) for these strains were manipulated as described by P. Gallinari et al. (see Gallinari P, Paolini C, Brennan D, Nardi C, Steinkuhler C, De Francesco R. Biochemistry. 38(17):5620–32, (1999)). Briefly, a three-lysine solubilizing tail was added at the 3′-end of the NS4A coding region. The cysteine in the P1 position of the NS4A-NS4B cleavage site (amino acid 1711) was changed to a glycine to avoid the proteolytic cleavage of the lysine tag. Furthermore, a cysteine to serine mutation was introduced by PCR at amino acid position 1454 to prevent the autolytic cleavage in the NS3 helicase domain. The variant DNA fragment was cloned in the pET21b bacterial expression vector (Novagen) and the NS3/4A complex was expressed in Escherichia. coli strain BL21 (DE3) (Invitrogen) following the protocol described by P. Gallinari et al. (see Gallinari P, Brennan D, Nardi C, Brunetti M, Tomei L, Steinkuhler C, De Francesco R., J. Virol. 72(8):6758–69 (1998)) with modifications. Briefly, NS3/4A expression was induced with 0.5 mM Isopropyl β-D-1-thiogalactopyranoside (IPTG) for 22 hr at 20° C. A typical fermentation (10L) yielded approximately 80 g of wet cell paste. The cells were resuspended in lysis buffer (10 mL/g) consisting of 25 mM N-(2-Hydroxyethyl)Piperazine-N′-(2-Ethane Sulfonic acid) (HEPES), pH7.5, 20% glycerol, 500 mM Sodium Chloride (NaCl), 0.5% Triton-X100, 1 ug/ml lysozyme, 5 mM Magnesium Chloride (MgCl2), lug/ml Dnasel, 5 mM β-Mercaptoethanol (βME), Protease inhibitor—Ethylenediamine Tetraacetic acid (EDTA) free (Roche), homogenized and incubated for 20 mins at 4° C. The homogenate was sonicated and clarified by ultra-centrifugation at 235000 g for 1 hr at 4° C. Imidazole was added to the supernatant to a final concentration of 15 mM and the pH adjusted to 8.0. The crude protein extract was loaded on a Nickel-Nitrilotriacetic acid (Ni-NTA) column pre-equilibrated with buffer B (25 mM HEPES, pH 8.0, 20% glycerol, 500 mM NaCl, 0.5% Triton-X100, 15 mM imidazole, 5 mM βME). The sample was loaded at a flow rate of 1 mL/min. The column was washed with 15 column volumes of buffer C (same as buffer B except with 0.2% Triton-X100). The protein was eluted with 5 column volumes of buffer D (same as buffer C except with 200 mM Imidazole). […]

Experiment [2] concerns HCV replicon in Huh7 cells. Briefly: HCV replicon cell-based assay. Set-up: species or system HCV strain 1B. The settings on record: HCV replicon, 4 days, read-out: EC50 range. From the text: HCV Replicon Cell-based Assay
An HCV replicon whole cell system was established as described by Lohmann V, Komer F, Koch J, Herian U, Theilmann L, Bartenschlager R., Science 285(5424):110–3 (1999). This system enabled us to evaluate the effects of our HCV Protease compounds on HCV RNA replication. Briefly, using the HCV strain 1B sequence described in the Lohmann paper (Assession number:AJ238799), an HCV cDNA was generated encoding the 5′ internal ribosome entry site (IRES), the neomycin resistance gene, the EMCV (encephalomyocarditis viurs)-IRES and the HCV nonstructural proteins, NS3-NS5B, and 3′ non-translated region (NTR). In vitro transcripts of the cDNA were transfected into the human hepatoma cell line, Huh7. […] Resulting cell lines were characterized for positive and negative strand RNA production and protein production over time.
Huh7 cells, constitutively expressing the HCV replicon, were grown in Dulbecco's Modified Eagle Media (DMEM) containing 10% Fetal calf serum (FCS) and 1 mg/ml G418 (Gibco-BRL). Cells were seeded the night before (1.5×10^4 cells/well) in 96-well tissue-culture sterile plates. Compound and no compound controls were prepared in DMEM containing 4% FCS, 1:100 Penicillin/Streptomysin, 1:100 L-glutamine and 5% DMSO in the dilution plate (0.5% DMSO final concentration in the assay). Compound/DMSO mixes were added to the cells and incubated for 4 days at 37° C. After 4 days, plates were rinsed thoroughly with Phosphate-Buffered Saline (PBS) (3 times 150 μl). The cells were lysed with 25 μl of a lysis assay reagent containing the FRET peptide (RET S1, as described for the in vitro enzyme assay). The lysis assay reagent was made from 5× cell Luciferase cell culture lysis reagent (Promega #E153A) diluted to 1× with distilled water, NaCl added to 150 mM final, the FRET peptide diluted to 10 μM final from a 2 mM stock in 100% DMSO. The plate was then placed into the Cytofluor 4000 instrument which had been set to 340 nm excitation/490 emission, automatic mode for 21 cycles and the plate read in a kinetic mode. EC50 determinations were carried out as described for the IC50 determinations.
As a secondary assay, EC50 determinations from the replicon FRET assay were confirmed in a quantitative RNA assay. Cells were lyzed using the Rneasy kit (Qiagen). Purified total RNA was normalized using RiboGreen (Jones L J, Yue S T, Cheung C Y, Singer V L, Anal. Chem., 265(2):368–74 (1998)) and relative quantitation of HCV RNA expression assessed using the Taqman procedure (Kolykhalov A A, Mihalik K, Feinstone S M, Rice C M, Journal of Virology 74, 2046–2051 (2000)) and the Platinum Quantitative RT-PCR Thermoscript One-Step kit (Invitrogen cat # 11731-015). Briefly, RNA made to a volume of 5 μl (<1 ng) was added to a 20 μl Ready-Mix containing the following: 1.25× Thermoscript reaction mix (containing Magnesium Sulfate and 2-deoxynucleoside 5′-triphosphates (dNTPs)), 3 mM dNTPs, 200 nM forward primer (sequence: 5′-[…]-3′), 600 nM reverse primer (5′-[…]-3′), 100 nM probe (5′-6-FAM-[…]-BHQ-1-3′)(FAM: Fluorescein-aminohexyl amidite; BHQ: Black Hole Quencher), 1 μM Rbx reference dye (Invitrogen cat # 12223-012) and Thermoscript Plus Platinum Taq polymerase mixture. All primers were designed with ABI Prism 7700 software and obtained from Biosearch Technologies, Novato, Calif. Samples containing known concentrations of HCV RNA transcript were run as standards. Using the following cycling protocol (50° C., 30 min; 95° C., 5 min; 40 cycles of 95° C., 15 sec, 60° C., 1 min), HCV RNA expression was quantitated as described in the Perkin Elmer manual using the ABI Prism 7700 Sequence Detector.
The luciferase reporter assay was also used to confirm compound potency in the replicon. Utilization of a replicon luciferase reporter assay was first described by Krieger et al (Krieger N, Lohmann V, and Bartenschlager R, J. Virol. 75(10):4614–4624 (2001)). […]

[3] abbreviates: HCV NS3/4A protease enzyme assay, read-out: IC50 range.

`C=CC1C[C@]1(NC(=O)[C@@H]1C[C@@H](OC(=O)Nc2ccccc2/C(=N/O)c2ccccc2)CN1C(=O)[C@@H](NC(=O)OC(C)(C)C)C(C)(C)C)C(=O)NS(=O)(=O)C1CC1` (single isomer, unassigned) [Compound 77a]: the IC50 in experiment [1] (setting [3]) was in the range of 100 to 1000 nM. The 50% effective concentration (EC50) (commonly the concentration that produces a half-maximal response) in experiment [2] fell in the range of 1000 to 10000 nM.

`C=CC1C[C@]1(NC(=O)[C@@H]1C[C@@H](OC(=O)Nc2ccccc2/C(=N/O)c2ccccc2)CN1C(=O)[C@@H](NC(=O)OC(C)(C)C)C(C)(C)C)C(=O)NS(=O)(=O)C1CC1` (single isomer, unassigned) [Compound 77b]: the IC50 in experiment [1] (setting [3]) is 100 to 1000 nM. Besides, in experiment [2], the half-maximal effective concentration (EC50) was over 10000 nM.

As to `C=CC1C[C@]1(NC(=O)[C@@H]1C[C@@H](OC(=O)N(C)c2ccccc2)CN1C(=O)[C@@H](NC(=O)OC(C)(C)C)C(C)(C)C)C(=O)NS(=O)(=O)C1CC1` (stereo partly drawn) [Compound 1, BocNH-P3(t-BuGly)-P2(Hyp(O—CO(N-methyl,N-phenyl)))-P1(1R,2S VinylAcca)—CONHSO2Cyclopropane], in experiment [1] (setting [3]), the IC50 fell in the range of 100 to 1000 nM. The EC50 in experiment [2] (Hepatitis C virus, Huh-7, 96 h) is 1000 to 10000 nM.

For the compound `C=CC1C[C@]1(NC(=O)[C@@H]1C[C@@H](OC(=O)NCc2ccccc2C)CN1C(=O)[C@@H](NC(=O)OC(C)(C)C)C(C)(C)C)C(=O)NS(=O)(=O)C1CC1` (stereo partly drawn) [Compound 2, BocNH-P3(t-BuGly)-P2(Hyp(O—CO(NH—(2-methylbenzyl))))-P1(1R,2S VinylAcca)—CONHSO2Cyclopropane], the IC50 in experiment [1] (setting [3]) lay in the range of 100 to 1000 nM. Further, in experiment [2] (Hepatitis C virus, Huh-7, 96 h), the EC50 was in the range of 1000 to 10000 nM.

As for `C=CC1C[C@]1(NC(=O)[C@@H]1C[C@@H](OC(=O)N[C@@H]2C[C@H]2c2ccccc2)CN1C(=O)[C@@H](NC(=O)OC(C)(C)C)C(C)(C)C)C(=O)NS(=O)(=O)C1CC1` (stereo partly drawn) [Compound 3, BocNH-P3(t-BuGly)-P(Hyp(O—CO(NH-2(trans)-phenylcyclopropyl)))-P1(1R,2S VinylAcca)—CONHSO2Cyclopropane], the IC50 in experiment [1] (setting [3]) was under 100 nM. The EC50 in experiment [2] (Hepatitis C virus, Huh-7, 96 h) lay in the range of 1000 to 10000 nM.

For the compound `C=CC1C[C@]1(NC(=O)[C@@H]1C[C@@H](OC(=O)N2CCOCC2)CN1C(=O)[C@@H](NC(=O)OC(C)(C)C)C(C)(C)C)C(=O)NS(=O)(=O)C1CC1` (stereo partly drawn) [Compound 4, BocNH-P3(t-BuGly)-P2(Hyp(O—CO—(4-morpholino)))-P1(1R,2S VinylAcca)—CONHSO2Cyclopropane], in experiment [1] (setting [3]), the IC50 lay within 100 to 1000 nM. Besides, the EC50 in experiment [2] (Hepatitis C virus, Huh-7, 96 h) was over 10000 nM.

In the case of `C=CCN(CC=C)C(=O)O[C@@H]1C[C@@H](C(=O)N[C@]2(C(=O)NS(=O)(=O)C3CC3)CC2C=C)N(C(=O)[C@@H](NC(=O)OC(C)(C)C)C(C)(C)C)C1` (stereo partly drawn) [Compound 5, BocNH-P3(t-BuGly)-P2(Hyp(O—CO(N,N-diallyl)))-P1(1R,2S VinylAcca)—CONHSO2Cyclopropane], the IC50 in experiment [1] (setting [3]) is 100 to 1000 nM. The EC50 in experiment [2] (Hepatitis C virus, Huh-7, 96 h) was in the range of 1000 to 10000 nM.

As for `C=CC1C[C@]1(NC(=O)[C@@H]1C[C@@H](OC(=O)NC2CCCCC2)CN1C(=O)[C@@H](NC(=O)OC(C)(C)C)C(C)(C)C)C(=O)NS(=O)(=O)C1CC1` (stereo partly drawn) [Compound 6, BocNH-P3(t-BuGly)-P2(Hyp(O—CO(NH-cyclohexyl)))-P1(1R,2S VinylAcca)—CONHSO2Cyclopropane], the IC50 in experiment [1] (setting [3]) was under 100 nM. In experiment [2] (Hepatitis C virus, Huh-7, 96 h), the concentration for a half-maximal effect (EC50) was 1000 to 10000 nM.

On to `C=CC1C[C@]1(NC(=O)[C@@H]1C[C@@H](OC(=O)NCCc2ccccc2)CN1C(=O)[C@@H](NC(=O)OC(C)(C)C)C(C)(C)C)C(=O)NS(=O)(=O)C1CC1` (stereo partly drawn) [Compound 7, BocNH-P3(t-BuGly)-P2(Hyp(O—CO(NH-phenethyl)))-P1(1R,2S VinylAcca)—CONHSO2Cyclopropane], for which, in experiment [1] (read-out: IC50 range, HCV NS3/4A protease enzyme assay), the IC50 is 100 to 1000 nM. The EC50 in experiment [2] (Hepatitis C virus, Huh-7, 96 h) fell in the range of 1000 to 10000 nM.

Regarding `C=CC1C[C@]1(NC(=O)[C@@H]1C[C@@H](OC(=O)Nc2cc(Cl)ccc2OC)CN1C(=O)[C@@H](NC(=O)OC(C)(C)C)C(C)(C)C)C(=O)NS(=O)(=O)C1CC1` (stereo partly drawn) [Compound 9, BocNH-P3(t-BuGly)-P2(Hyp(O—CO(NH—(5-chloro-2-methoxy-phenyl))))-P1(1R,2S VinylAcca)—CONHSO2Cyclopropane], in experiment [1] (setting [3]), the IC50 was under 100 nM. Further, the EC50 in experiment [2] (Hepatitis C virus, Huh-7, 96 h) fell in the range of 100 to 1000 nM.
